Like-named read-outs stand apart in the source and are kept apart here.
Experiments:
Test in all cases: DiscoverX KINOMEscan kinase profiling (468 assays)
Type in all cases: binding
human kinome [1] = target: human kinome (Homo sapiens, UniProt Q96SB4); conditions: kinase SRPK1 (Entrez SRPK1); compound concentration 1000 nM; read-out: Percent Control
Outline: (§1)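 DNA-tagged kinases competed for immobilized biotinylated ligands on streptavidin magnetic beads, with bound kinase quantified by qPCR. VIP152 in DMSO was tested against a DMSO control.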

human kinome [2] = target: human kinome (Homo sapiens, UniProt Q9UKE5); conditions: kinase TNIK (Entrez TNIK); compound concentration 1000 nM; read-out: Percent Control
Outline: as §1

human kinome [3] = target: human kinome (Homo sapiens, UniProt P09619); conditions: read-out: Percent Control
Outline: as §1

human kinome [4] = target: human kinome (Homo sapiens, UniProt P53667); conditions: LIMK1; 100 nM; read-out: Percent Control
Outline: as §1

human kinome [5] = target: human kinome (Homo sapiens, UniProt O15075); conditions: DCAMKL1 (Entrez DCLK1); 100 nM; read-out: Percent Control
Outline: as §1

human kinome [6] = target: human kinome (Homo sapiens, UniProt P11362); conditions: FGFR1; 100 nM; read-out: Percent Control
Outline: as §1

human kinome [7] = target: human kinome (Homo sapiens, UniProt P15056); conditions: BRAF; 100 nM; read-out: Percent Control
Outline: as §1

human kinome [8] = target: human kinome (Homo sapiens, UniProt Q99558); conditions: read-out: Percent Control
Outline: as §1

human kinome [9] = target: human kinome (Homo sapiens, UniProt O95747); conditions: read-out: Percent Control
Outline: as §1

human kinome [10] = target: human kinome (Homo sapiens, UniProt Q9BZL6); conditions: read-out: Percent Control
Outline: as §1

human kinome [11] = target: human kinome (Homo sapiens, UniProt P36888); conditions: 100 nM, read-out: Percent Control
Outline: as §1

human kinome [12] = target: human kinome (Homo sapiens, UniProt P07949, V804M); conditions: kinase RET(V804M) (Entrez RET); compound concentration 1000 nM; read-out: Percent Control
Outline: as §1

human kinome [13] = target: human kinome (Homo sapiens, UniProt P08581, Y1235D); conditions: MET(Y1235D); 100 nM; read-out: Percent Control
Outline: as §1

human kinome [14] = target: human kinome (Homo sapiens, UniProt Q08881); conditions: ITK; 100 nM; read-out: Percent Control
Outline: as §1

human kinome [15] = target: human kinome (Homo sapiens, UniProt P08581, M1250T); conditions: MET(M1250T); 100 nM; read-out: Percent Control
Outline: as §1

human kinome [16] = target: human kinome (Homo sapiens, UniProt P30530); conditions: AXL; 100 nM; read-out: Percent Control
Outline: as §1

human kinome [17] = target: human kinome (Homo sapiens, UniProt Q99640); conditions: read-out: Percent Control
Outline: as §1

human kinome [18] = target: human kinome (Homo sapiens, UniProt P49760); conditions: CLK2; 100 nM; read-out: Percent Control
Outline: as §1

human kinome [19] = target: human kinome (Homo sapiens, UniProt Q6P3R8); conditions: read-out: Percent Control
Outline: as §1

human kinome [20] = target: human kinome (Homo sapiens, UniProt P00533, DEL746-750); conditions: EGFR(E746-A750del); 100 nM; read-out: Percent Control
Outline: as §1

human kinome [21] = target: human kinome (Homo sapiens, UniProt Q15303); conditions: ERBB4; 100 nM; read-out: Percent Control
Outline: as §1

human kinome [22] = target: human kinome (Homo sapiens, UniProt Q9H2X6); conditions: HIPK2; 100 nM; read-out: Percent Control
Outline: as §1

human kinome [23] = target: human kinome (Homo sapiens, UniProt O75116); conditions: kinase ROCK2 (Entrez ROCK2); compound concentration 1000 nM; read-out: Percent Control
Outline: as §1

human kinome [24] = target: human kinome (Homo sapiens, UniProt Q9P286); conditions: read-out: Percent Control
Outline: as §1

human kinome [25] = target: human kinome (Homo sapiens, UniProt Q00532); conditions: CDKL1; 100 nM; read-out: Percent Control
Outline: as §1

human kinome [26] = target: human kinome (Homo sapiens, UniProt Q8NFD2); conditions: ANKK1; 100 nM; read-out: Percent Control
Outline: as §1

human kinome [27] = target: human kinome (Homo sapiens, UniProt P41240); conditions: CSK; 100 nM; read-out: Percent Control
Outline: as §1

human kinome [28] = target: human kinome (Homo sapiens, UniProt O75385); conditions: kinase ULK1 (Entrez ULK1); compound concentration 1000 nM; read-out: Percent Control
Outline: as §1

human kinome [29] = target: human kinome (Homo sapiens, UniProt P27037); conditions: ACVR2A; 100 nM; read-out: Percent Control
Outline: as §1

human kinome [30] = target: human kinome (Homo sapiens, UniProt P42336, I800L); conditions: read-out: Percent Control
Outline: as §1

Chain of human kinome (Homo sapiens, UniProt P42336, I800L) (P42336 whole entry I800L): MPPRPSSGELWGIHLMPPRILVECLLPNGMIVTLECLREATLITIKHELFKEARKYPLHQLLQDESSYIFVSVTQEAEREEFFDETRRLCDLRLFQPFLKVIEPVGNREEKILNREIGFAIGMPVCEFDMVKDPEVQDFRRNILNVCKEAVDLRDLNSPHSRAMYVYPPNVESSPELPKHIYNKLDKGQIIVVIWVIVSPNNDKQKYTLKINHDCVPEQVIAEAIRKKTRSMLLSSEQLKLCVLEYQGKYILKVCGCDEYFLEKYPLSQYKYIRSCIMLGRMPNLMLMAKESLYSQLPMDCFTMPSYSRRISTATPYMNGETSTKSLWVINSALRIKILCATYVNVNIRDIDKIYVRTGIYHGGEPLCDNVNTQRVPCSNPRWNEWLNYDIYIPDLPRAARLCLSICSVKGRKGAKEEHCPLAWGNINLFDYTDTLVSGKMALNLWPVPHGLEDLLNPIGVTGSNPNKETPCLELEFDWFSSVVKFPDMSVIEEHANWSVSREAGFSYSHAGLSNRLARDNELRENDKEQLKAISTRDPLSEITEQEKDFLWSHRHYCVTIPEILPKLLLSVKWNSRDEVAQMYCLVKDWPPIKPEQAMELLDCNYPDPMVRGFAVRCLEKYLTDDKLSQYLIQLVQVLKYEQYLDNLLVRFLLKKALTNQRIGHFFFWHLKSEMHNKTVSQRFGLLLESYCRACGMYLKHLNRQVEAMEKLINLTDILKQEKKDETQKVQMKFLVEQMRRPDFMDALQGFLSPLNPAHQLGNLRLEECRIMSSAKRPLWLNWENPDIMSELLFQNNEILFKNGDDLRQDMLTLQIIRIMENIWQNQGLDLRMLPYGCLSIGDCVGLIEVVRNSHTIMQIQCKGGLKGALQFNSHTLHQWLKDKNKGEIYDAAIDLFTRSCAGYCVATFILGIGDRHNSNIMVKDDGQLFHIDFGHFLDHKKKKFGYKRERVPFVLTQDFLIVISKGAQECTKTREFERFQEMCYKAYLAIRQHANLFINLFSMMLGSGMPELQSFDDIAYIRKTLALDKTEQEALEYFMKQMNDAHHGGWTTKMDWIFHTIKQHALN
Chain of human kinome (Homo sapiens, UniProt Q99640) (Q99640 whole entry): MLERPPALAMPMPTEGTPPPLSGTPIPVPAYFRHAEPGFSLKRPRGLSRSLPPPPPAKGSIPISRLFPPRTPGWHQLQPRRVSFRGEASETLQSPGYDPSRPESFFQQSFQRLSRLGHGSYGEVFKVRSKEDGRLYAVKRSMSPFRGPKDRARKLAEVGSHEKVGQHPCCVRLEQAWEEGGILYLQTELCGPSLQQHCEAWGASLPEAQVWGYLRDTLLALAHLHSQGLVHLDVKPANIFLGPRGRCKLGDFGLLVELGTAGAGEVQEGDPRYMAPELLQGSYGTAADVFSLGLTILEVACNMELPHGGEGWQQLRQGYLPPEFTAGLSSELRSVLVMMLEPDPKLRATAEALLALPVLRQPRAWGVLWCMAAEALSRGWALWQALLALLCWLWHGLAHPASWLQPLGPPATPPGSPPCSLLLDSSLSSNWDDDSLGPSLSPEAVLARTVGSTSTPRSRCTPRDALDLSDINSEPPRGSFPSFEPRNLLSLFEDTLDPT
Chain of human kinome (Homo sapiens, UniProt P09619) (P09619 33-1106): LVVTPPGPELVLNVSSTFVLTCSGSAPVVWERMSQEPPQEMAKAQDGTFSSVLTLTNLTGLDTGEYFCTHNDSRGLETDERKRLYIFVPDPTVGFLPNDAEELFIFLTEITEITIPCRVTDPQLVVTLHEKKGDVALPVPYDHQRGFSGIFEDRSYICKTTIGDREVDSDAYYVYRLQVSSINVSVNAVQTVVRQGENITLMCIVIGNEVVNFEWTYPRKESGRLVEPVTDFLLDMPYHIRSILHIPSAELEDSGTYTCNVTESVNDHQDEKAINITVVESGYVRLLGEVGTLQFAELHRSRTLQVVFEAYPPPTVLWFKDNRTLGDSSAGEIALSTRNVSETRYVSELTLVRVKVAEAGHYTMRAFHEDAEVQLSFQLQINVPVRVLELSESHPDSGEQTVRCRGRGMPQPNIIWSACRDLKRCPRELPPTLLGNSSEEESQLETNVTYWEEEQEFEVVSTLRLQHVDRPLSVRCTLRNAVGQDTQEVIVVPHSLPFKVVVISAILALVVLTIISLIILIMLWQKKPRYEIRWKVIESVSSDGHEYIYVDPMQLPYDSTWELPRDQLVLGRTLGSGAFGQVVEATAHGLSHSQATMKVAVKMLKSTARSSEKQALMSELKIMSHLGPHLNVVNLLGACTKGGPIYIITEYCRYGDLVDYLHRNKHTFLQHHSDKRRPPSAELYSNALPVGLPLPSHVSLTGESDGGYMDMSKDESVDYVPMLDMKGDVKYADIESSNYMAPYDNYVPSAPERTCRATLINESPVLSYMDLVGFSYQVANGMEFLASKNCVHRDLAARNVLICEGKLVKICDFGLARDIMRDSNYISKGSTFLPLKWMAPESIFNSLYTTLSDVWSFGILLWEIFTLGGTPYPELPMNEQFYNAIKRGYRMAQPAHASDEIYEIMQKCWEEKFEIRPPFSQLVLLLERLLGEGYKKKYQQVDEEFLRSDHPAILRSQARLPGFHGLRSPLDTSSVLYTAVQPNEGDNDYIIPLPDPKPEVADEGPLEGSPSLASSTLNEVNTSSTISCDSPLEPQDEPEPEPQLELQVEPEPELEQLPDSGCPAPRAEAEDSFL
Chain of human kinome (Homo sapiens, UniProt Q6P3R8) (Q6P3R8 whole entry): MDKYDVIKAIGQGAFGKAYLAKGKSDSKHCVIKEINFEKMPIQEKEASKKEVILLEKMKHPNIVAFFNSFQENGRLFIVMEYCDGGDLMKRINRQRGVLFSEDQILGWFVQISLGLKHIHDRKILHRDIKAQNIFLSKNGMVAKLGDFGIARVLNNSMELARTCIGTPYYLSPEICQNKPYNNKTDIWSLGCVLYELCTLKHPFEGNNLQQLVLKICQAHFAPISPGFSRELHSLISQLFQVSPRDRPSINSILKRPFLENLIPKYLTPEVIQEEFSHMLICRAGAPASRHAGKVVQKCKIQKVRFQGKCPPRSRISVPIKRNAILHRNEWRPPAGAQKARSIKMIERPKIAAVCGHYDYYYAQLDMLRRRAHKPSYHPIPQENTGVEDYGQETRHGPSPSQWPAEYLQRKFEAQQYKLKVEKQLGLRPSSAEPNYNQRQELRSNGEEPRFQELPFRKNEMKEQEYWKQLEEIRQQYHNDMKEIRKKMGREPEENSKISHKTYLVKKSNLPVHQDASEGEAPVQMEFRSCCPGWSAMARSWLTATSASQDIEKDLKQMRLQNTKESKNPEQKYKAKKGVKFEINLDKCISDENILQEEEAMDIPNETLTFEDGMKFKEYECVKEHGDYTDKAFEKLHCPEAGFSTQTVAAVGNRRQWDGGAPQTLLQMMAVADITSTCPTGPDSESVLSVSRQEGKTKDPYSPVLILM
Chain of human kinome (Homo sapiens, UniProt Q9P286) (Q9P286 whole entry): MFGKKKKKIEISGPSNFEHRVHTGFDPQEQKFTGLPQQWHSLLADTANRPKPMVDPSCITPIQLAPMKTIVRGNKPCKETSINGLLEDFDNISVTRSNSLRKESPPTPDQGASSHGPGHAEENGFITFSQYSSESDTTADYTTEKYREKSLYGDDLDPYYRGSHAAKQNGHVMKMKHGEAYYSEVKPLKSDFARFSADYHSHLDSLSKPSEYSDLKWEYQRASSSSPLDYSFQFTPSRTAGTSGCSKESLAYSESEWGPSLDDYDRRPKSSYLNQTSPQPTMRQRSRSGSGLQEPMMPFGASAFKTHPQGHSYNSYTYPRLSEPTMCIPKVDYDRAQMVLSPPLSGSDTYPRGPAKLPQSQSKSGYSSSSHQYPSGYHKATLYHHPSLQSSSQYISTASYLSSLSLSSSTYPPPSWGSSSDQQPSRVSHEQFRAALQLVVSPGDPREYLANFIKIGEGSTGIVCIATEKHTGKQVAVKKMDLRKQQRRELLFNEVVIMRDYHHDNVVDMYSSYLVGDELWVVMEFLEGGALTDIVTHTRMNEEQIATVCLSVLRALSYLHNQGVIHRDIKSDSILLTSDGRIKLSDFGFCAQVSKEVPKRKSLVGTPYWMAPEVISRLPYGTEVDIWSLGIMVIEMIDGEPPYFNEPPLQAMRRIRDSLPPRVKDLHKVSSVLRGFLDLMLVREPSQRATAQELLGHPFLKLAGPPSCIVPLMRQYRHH
Chain of human kinome (Homo sapiens, UniProt O95747) (O95747 whole entry): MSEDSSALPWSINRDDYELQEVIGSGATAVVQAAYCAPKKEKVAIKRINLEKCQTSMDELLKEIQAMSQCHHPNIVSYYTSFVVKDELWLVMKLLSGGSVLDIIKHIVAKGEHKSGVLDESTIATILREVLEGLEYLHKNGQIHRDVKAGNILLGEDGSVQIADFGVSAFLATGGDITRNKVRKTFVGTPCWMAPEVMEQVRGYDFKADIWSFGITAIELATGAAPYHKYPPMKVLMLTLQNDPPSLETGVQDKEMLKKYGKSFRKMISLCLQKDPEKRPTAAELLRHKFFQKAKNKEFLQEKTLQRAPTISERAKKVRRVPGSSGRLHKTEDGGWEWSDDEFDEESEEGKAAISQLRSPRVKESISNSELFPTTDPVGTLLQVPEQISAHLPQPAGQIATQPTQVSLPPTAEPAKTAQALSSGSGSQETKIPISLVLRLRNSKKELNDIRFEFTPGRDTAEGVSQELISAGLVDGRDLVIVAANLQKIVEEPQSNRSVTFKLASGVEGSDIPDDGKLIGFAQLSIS
Chain of human kinome (Homo sapiens, UniProt P41240) (P41240 whole entry): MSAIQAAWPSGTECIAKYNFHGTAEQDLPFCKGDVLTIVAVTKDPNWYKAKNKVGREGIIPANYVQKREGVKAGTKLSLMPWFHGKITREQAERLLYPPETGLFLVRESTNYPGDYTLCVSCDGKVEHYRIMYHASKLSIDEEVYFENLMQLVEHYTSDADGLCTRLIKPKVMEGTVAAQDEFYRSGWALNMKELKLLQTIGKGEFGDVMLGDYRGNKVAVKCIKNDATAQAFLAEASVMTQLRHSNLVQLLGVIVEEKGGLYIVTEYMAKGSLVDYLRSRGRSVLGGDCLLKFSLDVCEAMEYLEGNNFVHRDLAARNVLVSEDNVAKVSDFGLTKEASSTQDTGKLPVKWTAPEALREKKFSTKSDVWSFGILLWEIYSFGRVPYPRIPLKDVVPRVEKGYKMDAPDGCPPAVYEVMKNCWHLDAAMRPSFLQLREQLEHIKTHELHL

## COc1cc(F)ccc1-c1cc(Nc2cc(CS(C)(=N)=O)ccn2)ncc1F (stereo not drawn) [VIP152]
Human kinome [1]
  remaining binding at 1 µM: 91%
Human kinome [2]
  remaining binding at 1 µM: 32%
Human kinome [3]; PDGFRB, 100 nM
  remaining binding at 0.1 µM: 100%
Human kinome [3]; kinase PDGFRB (Entrez PDGFRB), compound concentration 1000 nM
  remaining binding at 1 µM: 71%
Human kinome [4]
  remaining binding at 0.1 µM: 100%
Human kinome [5]
  remaining binding at 0.1 µM: 91%
Human kinome [6]
  remaining binding at 0.1 µM: 100%
Human kinome [7]
  remaining binding at 0.1 µM: 100%
Human kinome [8]; NIK (Entrez MAP3K14), 100 nM
  remaining binding at 0.1 µM: 87%
Human kinome [8]; kinase NIK (Entrez MAP3K14), compound concentration 1000 nM
  remaining binding at 1 µM: 88%
Human kinome [9]; OSR1 (Entrez OXSR1), 100 nM
  remaining binding at 0.1 µM: 100%
Human kinome [9]; kinase OSR1 (Entrez OXSR1), compound concentration 1000 nM
  remaining binding at 1 µM: 100%
Human kinome [10]; PRKD2, 100 nM
  remaining binding at 0.1 µM: 90%
Human kinome [10]; kinase PRKD2 (Entrez PRKD2), compound concentration 1000 nM
  remaining binding at 1 µM: 88%
Human kinome [11]; FLT3-autoinhibited
  remaining binding at 0.1 µM: 99%
Human kinome [11]; FLT3
  remaining binding at 0.1 µM: 72%
Human kinome [12]
  remaining binding at 1 µM: 92%
Human kinome [13]
  remaining binding at 0.1 µM: 82%
Human kinome [14]
  remaining binding at 0.1 µM: 100%
Human kinome [15]
  remaining binding at 0.1 µM: 92%
Human kinome [16]
  remaining binding at 0.1 µM: 100%
Human kinome [17]; PKMYT1, 100 nM
  remaining binding at 0.1 µM: 100%
Human kinome [17]; kinase PKMYT1 (Entrez PKMYT1), compound concentration 1000 nM
  remaining binding at 1 µM: 45%
Human kinome [18]
  remaining binding at 0.1 µM: 61%
Human kinome [19]; NEK5, 100 nM
  remaining binding at 0.1 µM: 100%
Human kinome [19]; kinase NEK5 (Entrez NEK5), compound concentration 1000 nM
  remaining binding at 1 µM: 92%
Human kinome [20]
  remaining binding at 0.1 µM: 100%
Human kinome [21]
  remaining binding at 0.1 µM: 100%
Human kinome [22]
  remaining binding at 0.1 µM: 89%
Human kinome [23]
  remaining binding at 1 µM: 87%
Human kinome [24]; PAK7, 100 nM
  remaining binding at 0.1 µM: 100%
Human kinome [24]; kinase PAK7 (Entrez PAK7), compound concentration 1000 nM
  remaining binding at 1 µM: 78%
Human kinome [25]
  remaining binding at 0.1 µM: 69%
Human kinome [26]
  remaining binding at 0.1 µM: 100%
Human kinome [27]
  remaining binding at 0.1 µM: 100%
Human kinome [28]
  remaining binding at 1 µM: 90%
Human kinome [29]
  remaining binding at 0.1 µM: 91%
Human kinome [30]; PIK3CA(I800L), 100 nM
  remaining binding at 0.1 µM: 100%
Human kinome [30]; kinase PIK3CA(I800L) (Entrez PIK3CA), compound concentration 1000 nM
  remaining binding at 1 µM: 98%
